Source: patent publication US5886207A, “Optically active compound of flubrocythrinate, a process for preparing the same” (Shanghai Zhongxi Pharmaceutical Co. Ltd., priority 1994, dated 1999)

Assays:
Assay type in all cases: in vivo
wheat aphid = assay: Laboratory toxicity test against wheat aphid (Topic application method); conditions: for times as toxic as compound I against wheat aphid: relative to compound I, from Table 2; for LD50: third instar larva, topical 0.083 μl in acetone, 27° C., 48 hours
Description: (§1) 2. Laboratory toxicity test against wheat aphid (1) Method of manipulation (Topic application method) Weigh third instar larva on a swift electronic balance to obtain 8-18 mg/larva, and 0.083 μl of the insecticide solution in acetone at specified concentration with a microsyringe to the dorsal thorax of the larva, and then transfer the larva into a finger-type tube charged with artificial fodder, each tube for one larva, each concentration for 30 tubes, each insecticide run at 5 concentrations, and repeat 3 times. Place the tubes in a thermostat oven at 27° C. for 48 hours, and inspect the number of dead larva. Standard for death judgement: judge the wholly inflexible test aphid as death.

[1] = test system: tetranychus telarius Linnaeus; assay: Laboratory toxicity test against tetranychus telarius Linnaeus (Pasting Method); conditions: for LC50 / LC90: mature female mites, glass slide immersion 5 seconds, time 24 (hour); for times as toxic as compound I against tetranychus telarius Linnaeus: relative to compound I, from Table 1
Description: 1. Laboratory toxicity test against tetranychus telarius Linnaeus
(1) Method of manipulation: (Pasting Method)
Take the robust mature female mites, and paste the back of the mite on a piece of glass with a transparent adhesive tape. Every piece of glass pasted with 40 mites, and three pieces of glasses for each concentration, each insecticide repeated three times at five concentration. […] Immerse the above glasses in a insecticidal solution of specified concentration for 5 seconds and take out from the solution. Use a piece of absorbent paper to absorb the surplus insecticidal solution, transfer the above treated glasses to a culture dish previously fitted with a wetted cotton wool. […] Standard for death judgement: use a needle to move the body of the mite, wholly inflexible judged as death.

[2] = test system: tetranychus telarius Linnaeus and wheat aphid; assay: Overall comparison of efficacy and dosage with compound I from Tables 1 and 2; conditions: Tables 1 and 2, in words
Description: Take the robust mature female mites, and paste the back of the mite on a piece of glass with a transparent adhesive tape. Every piece of glass pasted with 40 mites, and three pieces of glasses for each concentration, each insecticide repeated three times at five concentration. […] Immerse the above glasses in a insecticidal solution of specified concentration for 5 seconds and take out from the solution. Use a piece of absorbent paper to absorb the surplus insecticidal solution, transfer the above treated glasses to a culture dish previously fitted with a wetted cotton wool. The culture dish is kept in a thermostat oven at 28° C. for 48 hours, and inspect the number of dead mites under binocular dissecteined microscope. Standard for death judgement: use a needle to move the body of the mite, wholly inflexible judged as death.
as §1, with “Weigh” for “2. Laboratory toxicity test against wheat aphid (1) Method of manipulation (Topic application method) Weigh”
The compound A and Ib are 2.11 times and 1.78 times as toxic as compound I against tetranychus telarius Linnaeus, and are 1.95 times and 1.88 times as toxic as compound I against wheat aphid respectively. Therefore compound Ia has the preferred effect, and the dosage needed is the lowest; the next one are A and compound Ib.

Structure (SMILES) | times as toxic as compound I against wheat aphid (wheat aphid) | LD50 (wheat aphid) | LC50 [1] | LC90 [1] | times as toxic as compound I against tetranychus telarius Linnaeus [1] | dosage compared with compound I [2] | efficacy compared with compound I [2]
CC(C)[C@H](C(=O)O[C@H](C#N)c1cccc(Oc2ccc(Br)cc2)c1)c1ccc(OC(F)F)cc1 (relative stereo) [A] | 1.95 times | 0.0003712 μg/larva | 10 ppm | 110 ppm | 2.11 times | lower than that of compound I | apparently better than compound I
CC(C)[C@H](C(=O)O[C@H](C#N)c1cccc(Oc2ccc(Br)cc2)c1)c1ccc(OC(F)F)cc1 [Ia, (S)-α-Cyano-3-(4-bromophenoxy)benzyl-(S)-2-(4-difluoromethoxyphenyl)-3-methylbutyrate] | 4.06 times | 0.0001783 μg/larva | 4 ppm | 52 ppm | 4.46 times | lower than that of compound I | apparently better than compound I
CC(C)[C@H](C(=O)O[C@@H](C#N)c1cccc(Oc2ccc(Br)cc2)c1)c1ccc(OC(F)F)cc1 [Ib, (R)-α-Cyano-3-(4-bromophenoxy)benzyl-(S)-2-(4-difluoromethoxyphenyl)-3-methylbutyrate] | 1.88 times | 0.000385 μg/larva | 12 ppm | 130 ppm | 1.78 times | lower than that of compound I | apparently better than compound I
CC(C)[C@@H](C(=O)O[C@H](C#N)c1cccc(Oc2ccc(Br)cc2)c1)c1ccc(OC(F)F)cc1 [Ic] | – | 0.009252 μg/larva | 220 ppm | 2580 ppm | – | – | –
CC(C)[C@@H](C(=O)O[C@@H](C#N)c1cccc(Oc2ccc(Br)cc2)c1)c1ccc(OC(F)F)cc1 [Id, (R)-α-Cyano-3-(4-bromophenoxy)benzyl (R)-2-(4-difluoromethoxyphenyl)-3-methylbutyrate] | – | 0.05047 μg/larva | 1200 ppm | 8000 ppm | – | – | –
CC(C)C(C(=O)OC(C#N)c1cccc(Oc2ccc(Br)cc2)c1)c1ccc(OC(F)F)cc1 (stereo not drawn) [compound I, α-cyano-3-(4-bromophenoxy) benzyl-2-(4-difluoromethoxyphenyl)-3-methylbutyrate, reference compound] | – | 0.0007247 μg/larva | 19 ppm | 232 ppm | – | – | –
